In patent publication US20250296916A1, “BICYCLIC PIPERAZINONES AND THERAPEUTIC USES THEREOF” (Cytokinetics, Inc., priority 2022, published 2025) one finds AC1.4 data, which are given here for 33 compounds.

SMILES strings stand for the structures.

The test relates to rabbit skeletal myofibrils (approximately 90% fast fibers). Nature of the test: Activation of fast skeletal myofibrils (PUMA coupled-enzyme ATPase assay). The conditions noted are these: concentration at which the compound increased the enzymatic activity by 40%; calcium at pCa25; PM12 buffer pH 6.8. The test is classed as biochemical. Here is the method:
Preparation of fast skeletal myofibrils: Rabbit skeletal myofibrils were prepared based upon the method of Herrmann et al. (Biochem. 32 (28): 7255-7263 (1993). Myofibrils were prepared from rabbit psoas muscle purchased from Pel-Freez Biologicals (Arkansas) within 2 days of ordering, stored on ice. Minced muscle was homogenized in 10 volumes of ice-cold “standard” buffer (50 mM Tris, pH 7.4, 0.1 M KOAc, 5 mM KCl, 2 mM dithiothreitol (DTT), 0.2 mM phenylmethylsulfonyl fluoride (PMSF), 10 μM leupeptin, 5 μM pepstatin, and 0.5 mM sodium azide) containing 5 mM ethylenediaminetetraacetic acid (EDTA) and 0.5% Triton X-100 using an Omni-Macro homogenizer. Myofibrils were recovered by low speed centrifugation (3000 rpm for 10 minutes) and washed 2 times in the Triton X-100 containing buffer to ensure removal of cellular membrane. Following the Triton washes, myofibrils were washed 3 times in “standard” buffer containing 2 mM magnesium acetate. A final wash in assay buffer (12 mM piperazine-1,4-bis(2-ethanesulfonic acid) (PIPES), pH 6.8, 60 mM KCl, 1 mM DTT) was performed and brought to 10% sucrose for flash freezing in liquid nitrogen and storage at −80° C.
Activation of Fast Skeletal Myofibrils: Fast fiber activators were identified by measuring the enzymatic activity of muscle myofibril preparations using the proprietary PUMA (trademark) (see, e.g., U.S. Pat. Nos. 6,410,254, 6,743,599, 7,202,051, and 7,378,254) assay system. Myofibril preparations consisted of rabbit skeletal muscle (approximately 90% fast fibers) that had been mechanically homogenized and washed with a detergent (Triton X-100) to remove cellular membranes. This preparation retained all of the sarcomeric components in a native conformation and the enzymatic activity was still regulated by calcium. Compounds were tested using a myofibril suspension and a level of calcium sufficient to increase enzymatic activity of the myofibrils to 25% of their maximal rate (termed pCa25). Enzymatic activity was tracked via a pyruvate kinase and lactate dehydrogenase-coupled enzyme system. This assay regenerates myosin-produced ADP into ATP by oxidizing NADH, producing an absorbance change at 340 nm. The buffering system was 12 mM PIPES, 2 mM MgCl2, 1 mM DTT at pH 6.8 (PM12 buffer). […] In Table 3, “Example Compound” refers to the compound labeled with the same number in Table 2.
As for `CC[C@H](C)[C@H]1C(=O)Nc2ccccc2N1C(=O)N1CCCC1` [Compound 104, (S)-3-((S)-sec-butyl)-4-(pyrrolidine-1-carbonyl)-3,4-dihydroquinoxalin-2(1H)-one], the AC1.4 was 1.31 µM.

Consider `CCC[C@H]1C(=O)Nc2ccccc2N1C(=O)c1cncc(C)c1` [Compound 16, (S)-4-(5-methylnicotinoyl)-3-propyl-3,4-dihydroquinoxalin-2(1H)-one], for which the AC1.4 amounted to 1.41 µM.

On to `CC[C@H](C)[C@H]1C(=O)Nc2cnccc2N1C(=O)c1ccccc1` [Compound 97, (S)-1-benzoyl-2-((S)-sec-butyl)-1,4-dihydropyrido[3,4-b]pyrazin-3(2H)-one], for which the AC1.4 worked out at 0.28 µM.

As to `CCC[C@H]1C(=O)Nc2ccccc2N1C(=O)c1ccc(N2CCCCCC2)nc1` [Compound 35, (S)-4-(6-(azepan-1-yl)nicotinoyl)-3-propyl-3,4-dihydroquinoxalin-2(1H)-one], the AC1.4 turned out to be 1.32 µM.

Regarding `CCC[C@H]1C(=O)Nc2ccccc2N1C(=O)c1cnn(CC2CC2)c1` [Compound 31, (S)-4-(1-(cyclopropylmethyl)-1H-pyrazole-4-carbonyl)-3-propyl-3,4-dihydroquinoxalin-2(1H)-one], the AC1.4 was determined as 0.41 µM.

Take `CC[C@H](C)[C@H]1C(=O)Nc2cncnc2N1C(=O)c1cnn(C)c1` [Compound 94, (S)-7-((S)-sec-butyl)-8-(1-methyl-1H-pyrazole-4-carbonyl)-7,8-dihydropteridin-6(5H)-one]: the AC1.4 worked out at 1.66 µM.

As to `CC(C)[C@H]1C(=O)Nc2ccccc2N1C(=O)c1cn[nH]c1` [Compound 86, (S)-3-isopropyl-4-(1H-pyrazole-4-carbonyl)-3,4-dihydroquinoxalin-2(1H)-one], the AC1.4 was 0.2 µM.

Take `CCC[C@H]1C(=O)Nc2ccccc2N1C(=O)Nc1ccccc1OC` [Compound 53, (S)-N-(2-methoxyphenyl)-3-oxo-2-propyl-3,4-dihydroquinoxaline-1(2H)-carboxamide]: the AC1.4 turned out to be 0.55 µM.

For the compound `CCC[C@H]1C(=O)Nc2ccc(Cl)cc2N1C(=O)c1cnn(C)c1` [Compound 64, (S)-6-Chloro-4-(1-methyl-1H-pyrazole-4-carbonyl)-3-propyl-3,4-dihydroquinoxalin-2(1H)-one], the AC1.4 was found to be 0.24 µM.

Take `CCC[C@H]1C(=O)Nc2ccccc2N1C(=O)CCc1ccccc1` [Compound 19, (S)-4-(3-phenylpropanoyl)-3-propyl-3,4-dihydroquinoxalin-2(1H)-one]: the AC1.4 stood at 1.46 µM.

Turning to `CC[C@H](C)[C@H]1C(=O)Nc2ccccc2N1C(=O)c1cnn(CCO)c1` [Compound 78, (S)-3-((S)-sec-butyl)-4-(1-(2-hydroxyethyl)-1H-pyrazole-4-carbonyl)-3,4-dihydroquinoxalin-2(1H)-one], the AC1.4 is 0.16 µM.

For `CCC[C@H]1C(=O)Nc2ccccc2N1C(=O)Nc1ccc(OC)cc1` [Compound 55, (S)-N-(4-methoxyphenyl)-3-oxo-2-propyl-3,4-dihydroquinoxaline-1(2H)-carboxamide], the AC1.4 was determined as 1.88 µM.

As to `CCC[C@H]1C(=O)Nc2ccccc2N1C(=O)c1ccccc1` [Compound 10, (S)-4-benzoyl-3-propyl-3,4-dihydroquinoxalin-2(1H)-one], the AC1.4 came out at 0.33 µM.

`CC(C)C[C@H]1C(=O)Nc2ccccc2N1C(=O)c1cnn(C)c1` [Compound 68, (S)-3-isobutyl-4-(1-methyl-1H-pyrazole-4-carbonyl)-3,4-dihydroquinoxalin-2(1H)-one]: the AC1.4 worked out at 0.16 µM.

Regarding `CCC[C@H]1C(=O)Nc2ccccc2N1C(=O)c1ccc(N2CC(F)(F)C2)nc1` [Compound 42, (S)-4-(6-(3,3-difluoroazetidin-1-yl)nicotinoyl)-3-propyl-3,4-dihydroquinoxalin-2(1H)-one], the AC1.4 is 2.34 µM.

Turning to `CCC[C@H]1C(=O)Nc2ccccc2N1C(=O)c1ccc(N2CCCCC2)nc1` [Compound 29, (S)-4-(6-(piperidin-1-yl)nicotinoyl)-3-propyl-3,4-dihydroquinoxalin-2(1H)-one], the AC1.4 turned out to be 2.7 µM.

Regarding `CCC[C@H]1C(=O)Nc2ccccc2N1C(=O)c1cnn(CC)c1` [Compound 30, (S)-4-(1-ethyl-1H-pyrazole-4-carbonyl)-3-propyl-3,4-dihydroquinoxalin-2(1H)-one], the AC1.4 amounted to 0.42 µM.

As to `CCCC1C(=O)Nc2ccccc2N1C(=O)c1ccc(Cl)nc1` (stereo not drawn) [Compound 1, 4-(6-chloronicotinoyl)-3-propyl-3,4-dihydroquinoxalin-2(1H)-one], the AC1.4 is 0.45 µM.

Consider `CCC[C@H]1C(=O)Nc2ccccc2N1C(=O)c1ccc(NCC(F)(F)F)nc1` [Compound 34, (S)-3-propyl-4-(6-((2,2,2-trifluoroethyl)amino)nicotinoyl)-3,4-dihydroquinoxalin-2(1H)-one], for which the AC1.4 stood at 2.59 µM.

Take `CCC[C@H]1C(=O)Nc2ccccc2N1C(=O)c1cnn(C2CC2)c1` [Compound 76, (S)-4-(1-cyclopropyl-1H-pyrazole-4-carbonyl)-3-propyl-3,4-dihydroquinoxalin-2(1H)-one]: the AC1.4 came to 0.47 µM.

Regarding `CCC[C@H]1C(=O)Nc2ccccc2N1C(=O)c1ccc(NC(C)=O)nc1` [Compound 22, (S)-N-(5-(3-oxo-2-propyl-1,2,3,4-tetrahydroquinoxaline-1-carbonyl)pyridin-2-yl)acetamide], the AC1.4 came to 2.76 µM.

Regarding `CCC[C@H]1C(=O)Nc2ccc(Cl)cc2N1C(=O)c1ccc(Cl)nc1` [Compound 2, (S)-6-chloro-4-(6-chloronicotinoyl)-3-propyl-3,4-dihydroquinoxalin-2(1H)-one], the AC1.4 is 0.71 µM.

On to `CC[C@H](C)[C@H]1C(=O)Nc2ccccc2N1C(=O)N1CC[C@H](O)C1` [Compound 106, (S)-3-((S)-sec-butyl)-4-((S)-3-hydroxypyrrolidine-1-carbonyl)-3,4-dihydroquinoxalin-2(1H)-one], for which the AC1.4 came to 1.77 µM.

On to `CC[C@H](C)[C@H]1C(=O)Nc2c(F)cccc2N1C(N)=O` [Compound 100, (S)-2-((S)-sec-Butyl)-5-fluoro-3-oxo-3,4-dihydroquinoxaline-1(2H)-carboxamide], for which the AC1.4 was 1.58 µM.

Regarding `CCC[C@H]1C(=O)Nc2ccccc2N1C(=O)N[C@@H](C)c1ccccc1` [Compound 50, (S)-3-oxo-N-((S)-1-phenylethyl)-2-propyl-3,4-dihydroquinoxaline-1(2H)-carboxamide], the AC1.4 is 2.36 µM.

For the compound `CC[C@H](C)[C@H]1C(=O)Nc2ccccc2N1C(=O)N(C)CCCO` [Compound 115, (S)-2-((S)-sec-butyl)-N-(3-hydroxypropyl)-N-methyl-3-oxo-3,4-dihydroquinoxaline-1(2H)-carboxamide], the AC1.4 came to 2.29 µM.

In the case of `CCC[C@H]1C(=O)Nc2ccccc2N1C(=O)c1ccc(N2CCC(F)C2)nc1` (stereo partly drawn) [Compound 41, (3S)-4-(6-(3-fluoropyrrolidin-1-yl)nicotinoyl)-3-propyl-3,4-dihydroquinoxalin-2(1H)-one], the AC1.4 was 1.63 µM.

With `CC[C@H](C)[C@H]1C(=O)Nc2ccccc2N1C(=O)N[C@H]1CCN(C)C1` [Compound 129, (S)-2-((S)-sec-butyl)-N-((S)-1-methylpyrrolidin-3-yl)-3-oxo-3,4-dihydroquinoxaline-1(2H)-carboxamide], the AC1.4 came out at 1.3 µM.

As for `CC[C@H](C)[C@H]1C(=O)Nc2ccc(F)cc2N1C(N)=O` [Compound 113, (S)-2-((S)-sec-butyl)-7-fluoro-3-oxo-3,4-dihydroquinoxaline-1(2H)-carboxamide], the AC1.4 was found to be 2.01 µM.

Regarding `CC[C@H](C)[C@H]1C(=O)Nc2cnccc2N1C(=O)c1ccc(=O)n(C)c1` [Compound 91, (S)-2-((S)-sec-butyl)-1-(1-methyl-6-oxo-1,6-dihydropyridine-3-carbonyl)-1,4-dihydropyrido[3,4-b]pyrazin-3(2H)-one], the AC1.4 is 0.72 µM.

`CCC[C@H]1C(=O)Nc2ccccc2N1C(=O)Nc1cccc(C)c1` [Compound 61, (S)-3-oxo-2-propyl-N-(m-tolyl)-3,4-dihydroquinoxaline-1(2H)-carboxamide]: the AC1.4 was 0.43 µM.

As to `CCC[C@H]1C(=O)Nc2ccccc2N1C(=O)Nc1cccc(OC)c1` [Compound 54, (S)-N-(3-methoxyphenyl)-3-oxo-2-propyl-3,4-dihydroquinoxaline-1(2H)-carboxamide], the AC1.4 was 0.31 µM.

For `CCC[C@H]1C(=O)Nc2ccccc2N1C(=O)c1ccc(N)nc1` [Compound 27, (S)-4-(6-aminonicotinoyl)-3-propyl-3,4-dihydroquinoxalin-2(1H)-one], the AC1.4 is 0.76 µM.
